The text below walks through data of patent publication US9642835B2, “Modulators of GTPase and use in relevant treatment” (STC.UNM, priority 2010, dated 2017).

For test [1], the system named is Cdc42, Rab2, Rab7, activated Rac1Q61L, Rac1, and H-Ras. In words: Multiplexed primary screen, fluorescent GTP binding. The conditions noted are these: 10 μM compound. The procedure: Multiplex screening was performed by measuring GTP-binding activities of six GTPases (Cdc42, Rab2, Rab7, activated Rac1Q61L, Rac1, and H-Ras) simultaneously using special glutathione (GSH) bead sets having varied fluorescence intensities at a fixed wavelength^38. Individual GST-GTPase chimeras were tested against approximately 200,000 small molecules from the Molecular Libraries Small Molecule Repository (MLSMR). Results of fluorescent GTP-binding from the entire primary screen are summarized in the open access Pubchem database as required for projects conducted under the Roadmap Initiative (AID 757-761, 764). […] In total 1877 compounds/194,635 were identified as activators or inhibitors in the primary screen. On the order of 100-500 compounds were found active per GTPase target, enabling an unprecedented, comprehensive evaluation of small molecules active against various Ras-related GTPase family members. Here we report one compound active specifically on Cdc42 and structure activity relationships determined through chemical synthesis.
Multiplex analysis of small GTPases, were performed as we have described previously {Surviladze, 2009}. […] Flow cytometric light scatter and fluorescence emission at 530+/−20 nm (FL1) and 665+/−10 nm (FL8) were collected on a Cyan ADP flow cytometer (Beckman Coulter, Fullerton, Calif.). The resulting time-dependent data (one file per plate) were analyzed using IDLQuery software to determine the compound activity in each well. […] Gating based on FL8 emission distinguishes the beads coated with different proteins, and the median fluorescence per bead population was calculated. […]
For detection of GTP binding to small G-proteins we used bead-based multiplex flow cytometry assay {Surviladze, 2009}. […] Six individual GST-GTPases representative of Rho, Ras and Rab branches of the Ras-related GTPase family (Cdc42 wt, Rac1 wt, Rac1Q61L, Rab2 wt, Rab7 wt, and H-Ras wt) were first bound to GSH-beads of a particular fluorescence intensity. […]

Test [2] concerns other Rho family GTPases (Rac1, RhoA). In words: Multiplex dose response with Mg, BODIPY-FL-GTP binding. To be noted: in the presence of Mg ions. The procedure: (§1) In experiments including magnesium, six GST-GTPases were assayed simultaneously in a single multiplex (Rac1 wt, Rac1Q61L, RhoA wt, RhoAL63, Cdc42 wt and Cdc42Q61L) and 1 nM BODIPY-FL-GTP binding was measured in the presence or absence of the serial drug dilution series. Each dose response series was run in duplicate.

In test [3] the target is T1, Cdc42 WT (Homo sapiens, UniProt P60953).
T1 construct: purchased Cytoskeleton
Kind of test: Bead-based flow cytometry dose response, BODIPY-FL-GTP binding. To be noted: in the presence of Mg ions; read-out: EC50 for Cdc42 wt. The procedure:
(§2) Bead sets for multiplex assays were custom synthesized by Duke Scientific Corp (Fremont, Calif.), but may now be ordered from Thermo/Fisher. […] Negative controls, contained the bead mixture with fluorescent GTP, 0.5 mM unlabeled GTP as a competitor, and 1% DMSO. […] The resulting time-dependent data (one file per plate) were analyzed using IDLQuery software to determine the compound activity in each well. Gating based on forward scatter (FS) and side scatter (SS) parameters was used to identify singlet bead populations. Gating based on FL8 emission distinguishes the beads coated with different proteins, and the median fluorescence per bead population was calculated. […] Baselines were set to 100% based on measurements from the 1% DMSO containing positive controls as further described in PubChem. {PubChem #72}
(§3) Briefly, compounds were serially diluted 1:3 a total of eight times from a starting concentration of 10 mM giving a 9-point dilution series in DMSO. The final concentrations of inhibitors in the assay ranged from 10 nM to 100 μM. Dose-response analyses were examined in the presence of NP-HPS buffer containing: a) 1 mM EDTA; or b) 1 mM MgCl2. […] For assays with EDTA we used one multiplex (Rab7 wt, Rab2 wt, H-Ras wt, H-RasG12V, Cdc42 wt, and Cdc42Q61L) and 3 single-plexes (for Rac1 wt, Rac1 Q61L and GST-GFP).
(§4) GTPase activators were identified on the basis of an increase in fluorescent GTP-binding.
as §1

The target of test [4] is Cdc42 ACT (Cdc42Q61L) (Homo sapiens, UniProt P60953, Q61L). Described as above. To be noted: in the presence of Mg ions; read-out: EC50 for Cdc42(Q61L). The procedure:
as §2, §3, §4, §1

pEC50: −log10 of the molar value.

Sequence of Cdc42 ACT (Cdc42Q61L) (P60953 whole entry Q61L): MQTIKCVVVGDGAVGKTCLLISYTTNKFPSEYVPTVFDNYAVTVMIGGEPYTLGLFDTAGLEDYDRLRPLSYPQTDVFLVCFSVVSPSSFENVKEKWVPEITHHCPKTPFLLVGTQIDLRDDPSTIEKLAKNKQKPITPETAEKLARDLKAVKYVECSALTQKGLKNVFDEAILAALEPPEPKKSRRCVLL
T1 sequence (P60953 whole entry): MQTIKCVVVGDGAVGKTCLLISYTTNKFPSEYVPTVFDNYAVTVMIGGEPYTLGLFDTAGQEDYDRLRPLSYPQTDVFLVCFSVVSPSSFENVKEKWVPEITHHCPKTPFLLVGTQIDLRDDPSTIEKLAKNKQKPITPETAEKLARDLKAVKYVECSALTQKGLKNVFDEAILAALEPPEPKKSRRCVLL

For `COc1ccc(C2CC(c3ccccc3)=NN2c2ccc(S(N)(=O)=O)cc2)cc1` (stereo not shown) [MLS000693334, 4-[3-(4-methoxyphenyl)-5-phenyl-3,4-dihydropyrazol-2-yl]benzenesulfonamide], in test [1], the “Outcome of primary screening” value was “specific inhibitors”. The “Effect on activity of other Rho family GTPases” value in test [2] is recorded as “did not affect activity”. The pEC50 in test [3] and in test [4] was approximately 5.40 throughout.
